Test results published in PMC10053059, “Intraocular siRNA Delivery Mediated by Penetratin Derivative to Silence Orthotopic Retinoblastoma Gene” (Pharmaceutics, 2023).
Where no end group is shown, it is not given here.

What was measured:
[1] = system: ARPE-19 cells; assay: Intracellular co-localization, laser scanning confocal microscopy; type: cell-based, Human; settings: ARPE-19, 1 µg/mL siRNA, serum-free medium, 4 h
Protocol: ARPE-19 cells in the logarithmic growth phase were seeded in confocal dishes with a density of 5000 cells/well and incubated for 24 h with 5% CO2 at 37 °C. After administration with various polyplexes at a final concentration of 1 µg/mL siRNA, the cells were further cultured in serum-free medium for 4 h. Then, the cells were washed with 0.2% (m/v) heparin sodium solution three times, fixed with 4% (m/v) paraformaldehyde solution for 5 min, stained with 1 µg/mL 4’,6-diamidino-2-phenylindole (DAPI) solution for 10 min, and moisturized with 50% (v/v) glycerol.

[2] = system: WERI-Rb-1 cells; assay: Cellular uptake pathway, dual-label flow cytometry with uptake inhibitors; type: cell-based, Human; settings: WERI-Rb-1, inhibitors of Table S1, n = 3 (Figure S4)
Protocol: (§1) For quantitative analysis of cellular uptake of different formulations, ARPE-19 cells and WERI-Rb-1 cells in the logarithmic growth phase were inoculated in 12-well plates with 50,000 cells in each well (n = 3), as mentioned above. After being incubated with various formulations at a final concentration of 1 µg/mL siRNA, the cells were trypsinized with 0.25% trypsin-EDTA, collected in Eppendorf tubes, and centrifuged at 1000 rpm for 5 min. The precipitated cells were subsequently suspended, washed twice in 200 μL phosphate buffer saline (PBS), and analyzed using a flow cytometer (Beckman, Brea, CA, USA). The percentage of FAM-positive cells in total viable cells was defined as the uptake efficiency. The effects of various inhibitors on cellular uptake were also assessed.
(§2) Table S1. Cellular uptake inhibitors and their function mechanisms
(§3) Inhibitor Final Mechanism of action
(§4) Filipin 20 μg/mL Bind to cholesterol on the cell membrane and inhibit endocytosis
(§5) Mß-CD 300 μg/mL Deplete cholesterol and suppress endocytosis
(§6) Genistein 20 μg/mL Inhibit lipid raft/caveolae mediated endocytosis
(§7) Colchicine 20 μg/mL Inhibit pinocytosis by binding to tubulin to prevent microtubule
(§8) Dynasore 20 μg/mL Inhibit […] in clathrin -mediated endocytosis
(§9) Figure S1. Polyacrylamide gel electrophoresis of primary polyplexes siRNA/PA. The ratio is N/P
(§10) of 3rd generation PAMAM to siRNA. […]

[3] = system: ARPE-19 cells; assay: as above; type: cell-based, Human; settings: ARPE-19, inhibitors of Table S1, n = 3 (Figure S4)
Protocol: as §1, §2, §3, §4, §5, §6, §7, §8, §9, §10

[4] = system: eyes, retina; settings: in vivo; cited from earlier work
Description: We previously screened out penetratin from several of the most commonly reported cell-penetrating peptides based on the ex vivo permeability in excised cornea and in vivo ocular distribution. In a subsequent study, we optimized wild-type penetratin via amino acid mutation to further improve its permeability, and obtained a series of derivative peptides, which could be used as potential ocular absorption enhancers with low toxicity. […] Therefore, we chose 89WP to ...

## RQIKIWFWWRRMKWKK [89WP-FAM, 5-carboxyfluorescein-labeled 89WP]
[1]
  internalization by cells (confocal observation): could be well internalized by the cells and distributed around the nuclei
[2]
  effect of uptake inhibitors on cellular uptake of single fluorescence-labeled material: did not affect cellular uptake
[3]
  effect of uptake inhibitors on cellular uptake of single fluorescence-labeled material: did not affect cellular uptake

## RQIKIWFWWRRMKWKK [89WP]
[4]
  distribution in the eyes after topical instillation: showed more distribution in the eyes, especially in the retina
